The source of these data is US8993756B2 (Merck Sharp & Dohme Corp., priority 2011, dated 2015).

One assay has as its target JAK3 (Homo sapiens (Human), UniProt P52333). Put plainly: Jak Biochemical HTRF Assay (JAK3). Conditions: recombinant GST-tagged catalytic domain, [ATP] 2.9 μM. A general note: Time-resolved FRET reads energy transfer from a long-lived donor to a nearby acceptor.
The next assay addresses JAK2 (Homo sapiens (Human), UniProt O60674). The assay can be described thus: Jak Biochemical HTRF Assay (JAK2). Conditions: recombinant GST-tagged catalytic domain, [ATP] 8.5 μM.

SMILES strings stand for the structures. Bounds are passed on as bounds.

Sequence of JAK2 (O60674 849-1124): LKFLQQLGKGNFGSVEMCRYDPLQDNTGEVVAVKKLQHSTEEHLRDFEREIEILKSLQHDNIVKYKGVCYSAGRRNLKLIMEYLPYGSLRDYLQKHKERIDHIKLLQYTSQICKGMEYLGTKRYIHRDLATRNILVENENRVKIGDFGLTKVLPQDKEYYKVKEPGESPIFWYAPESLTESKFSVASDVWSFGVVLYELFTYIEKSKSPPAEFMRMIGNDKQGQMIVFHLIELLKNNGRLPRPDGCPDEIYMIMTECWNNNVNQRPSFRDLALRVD
Sequence of JAK3 (P52333 822-1111): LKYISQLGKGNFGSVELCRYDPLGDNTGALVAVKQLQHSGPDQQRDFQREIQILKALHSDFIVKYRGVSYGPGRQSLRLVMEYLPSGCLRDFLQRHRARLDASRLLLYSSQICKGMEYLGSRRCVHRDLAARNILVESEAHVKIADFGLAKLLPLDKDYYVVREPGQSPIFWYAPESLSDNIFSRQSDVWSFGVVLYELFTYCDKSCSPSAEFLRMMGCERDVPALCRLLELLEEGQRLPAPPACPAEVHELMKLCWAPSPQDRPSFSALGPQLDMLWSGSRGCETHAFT

Regarding `C/C=C\C(=O)Nc1cccc(-c2ncnc3[nH]cc(C(=O)OCC)c23)c1` [Example 5-9, ethyl 4-{3-[(2Z)-but-2-enoylamino]phenyl}-7H-pyrrolo[2,3-d]pyrimidine-5-carboxylate], the IC50 – broadly, the concentration needed to halve the response being measured – on JAK3 is 8.3 nM; on JAK2 it was above 1500 nM.

Regarding `C=C(F)C(=O)Nc1cc(-c2ncnc3[nH]cc(C(=O)OCC)c23)ccc1F` [Example 5-10, ethyl 4-{4-fluoro-3-[(2-fluoroacryloyl)amino]phenyl}-7H-pyrrolo[2,3-d]pyrimidine-5-carboxylate], the values for the 50% inhibitory concentration (IC50) at JAK3 and at JAK2 were 0.013 nM and above 1500 nM, respectively.

In the case of `CCOC(=O)c1c[nH]c2ncnc(-c3cccc(NC(=O)C4=COCCO4)c3)c12` [Example 5-13, ethyl 4-{3-[(5,6-dihydro-1,4-dioxin-2-ylcarbonyl)amino]phenyl}-7H-pyrrolo[2,3-d]pyrimidine-5-carboxylate], the IC50 on JAK3 (given as range class) was 10 to 500 nM; at JAK2 (given as range class) it was above 500 nM.

In the case of `CCOC(=O)c1c[nH]c2ncnc(-c3cccc(NC(=O)/C=C/C(C)=O)c3)c12` [Example 5-14, ethyl 4-(3-{[(2E)-4-oxopent-2-enoyl]amino}phenyl)-7H-pyrrolo[2,3-d]pyrimidine-5-carboxylate], the IC50 is 5.3 nM at JAK3 and above 1500 nM on JAK2.

Take `CCOC(=O)c1c[nH]c2ncnc(-c3cccc(NC(=O)/C=C/c4c(C)nn(C)c4C)c3)c12` [Example 5-15, ethyl 4-(3-{[(2E)-3-(1,3,5-trimethyl-1H-pyrazol-4-yl)prop-2-enoyl]amino}phenyl)-7H-pyrrolo[2,3-d]pyrimidine-5-carboxylate]: the IC50 on JAK3 (given as range class) was 10 to 500 nM; on JAK2 (given as range class), above 500 nM.

Regarding `CCOC(=O)c1c[nH]c2ncnc(-c3cccc(NC(=O)/C=C/c4ccccn4)c3)c12` [Example 5-16, ethyl 4-(3-{[(2E)-3-pyridin-2-ylprop-2-enoyl]amino}phenyl)-7H-pyrrolo[2,3-d]pyrimidine-5-carboxylate], the IC50 amounted to 6.6 nM at JAK3 and 452 nM on JAK2.

On to `CCOC(=O)c1c[nH]c2ncnc(-c3cccc(NC(=O)/C=C/c4ccncc4)c3)c12` [Example 5-17, ethyl 4-(3-{[(2E)-3-pyridin-4-ylprop-2-enoyl]amino}phenyl)-7H-pyrrolo[2,3-d]pyrimidine-5-carboxylate], for which the IC50 was 2 nM on JAK3 and above 1500 nM at JAK2.

As for `CCOC(=O)c1c[nH]c2ncnc(-c3cccc(NC(=O)c4c[nH]c(=O)[nH]c4=O)c3)c12` [Example 5-18, ethyl 4-(3-{[(2,4-dioxo-1,2,3,4-tetrahydropyrimidin-5-yl)carbonyl]amino}phenyl)-7H-pyrrolo[2,3-d]pyrimidine-5-carboxylate], the concentration for half-maximal inhibition (IC50) was 10 to 500 nM on JAK3 (given as range class) and above 500 nM at JAK2 (given as range class).

Consider `CCOC(=O)c1c[nH]c2ncnc(-c3cccc(NC(=O)/C=C/c4c[nH]c5ccccc45)c3)c12` [Example 5-19, ethyl 4-(3-{[(2E)-3-(1H-indo1-3-yl)prop-2-enoyl]amino}phenyl)-7H-pyrrolo[2,3-d]pyrimidine-5-carboxylate], for which the IC50 at JAK3 was 2.4 nM; on JAK2 it was above 1500 nM.

As for `CCOC(=O)c1c[nH]c2ncnc(-c3cccc(NC(=O)c4c[nH]c(=O)[nH]4)c3)c12` [Example 5-20, ethyl 4-(3-{[(2-oxo-2,3-dihydro-1H-imidazol-4-yl)carbonyl]amino}phenyl)-7H-pyrrolo[2,3-d]pyrimidine-5-carboxylate], the IC50 is 10 to 500 nM at JAK3 (given as range class) and above 500 nM at JAK2 (given as range class).

Consider `CCOC(=O)c1c[nH]c2ncnc(-c3cccc(NC(=O)/C=C/c4cccs4)c3)c12` [Example 5-21, ethyl 4-(3-{[(2E)-3-thiophen-2-ylprop-2-enoyl]amino}phenyl)-7H-pyrrolo[2,3-d]pyrimidine-5-carboxylate], for which the IC50 is 10 to 500 nM on JAK3 (given as range class) and above 500 nM on JAK2 (given as range class).

Take `CCOC(=O)c1c[nH]c2ncnc(-c3cccc(NC(=O)/C=C/c4ccoc4)c3)c12` [Example 5-22, ethyl 4-(3-{[(2E)-3-furan-3-ylprop-2-enoyl]amino}phenyl)-7H-pyrrolo[2,3-d]pyrimidine-5-carboxylate]: the results for the 50% inhibitory concentration (IC50) at JAK3 (given as range class) and at JAK2 (given as range class) were 10 to 500 nM and above 500 nM, respectively.
